One data set has as its system Clostridium spp. The note with it: cited from earlier work.
Data set [1] concerns Pfdx-rbG-botR-T1-Pntnh-catP construct integrated in the pyrE locus. The format is cell-based, C. botulinum ATCC 19397 ΔClA.

Structures are written as SMILES.

For `Cc1c2c(c(O)c3c(O)cccc13)C(=O)[C@]1(O)C(=O)C(C(N)=O)=C(O)[C@@H](N(C)C)[C@@H]1C2` [anhydrotetracycline], the “effect on cell growth” value in the data set on Clostridium spp. is given as “significant inhibitory effects on cell growth”.
In the case of `Cn1c(=O)c2[nH]cnc2n(C)c1=O` [theophylline], the “CAT expression upon induction relative to absence of theophylline” value in data set [1] is listed as “approximately 7 fold”.
